Test results: US20130338383A1, “PREGNANOLONE DERIVATIVES SUBSTITUTED IN 3ALPHA-POSITION WITH THE CATIONIC GROUP, METHOD OF THEIR PRODUCTION, USAGE AND PHARMACEUTICAL PREPARATION INVOLVING THEM” (FYZIOLOGICKY USTAV AKADEMIE VED CESKE REPUBLICKY, V.V.I., priority 2011, published 2013)
Where two headings read alike, the source gives them in different places.

Tests used:
[1] = target: T1, NR1/NR2B NMDA receptors (Rattus norvegicus, UniProt P35439+Q00960); test: Patch-clamp inhibition of glutamate-elicited currents in HEK293 cells transfected with NR1-1a/NR2B; type: cell-based; conditions: for IC50: calculated from relative inhibition with Hill's coefficient 1.2; for IC50 / Relative inhibition effect (%): 5 cells; for Relative inhibition effect (%): 1 mmol·l^−1 glutamic acid
T1 construct: expressed in transfected cells; host or cells: HEK293 cells (ATCC CRL1573)
Experimental: The membrane potentials were maintained at −60 mV or +60 mV. Patch-clamp technique was used to record the currents from cultivated HEK293 cells with transfected NR1/NR2B NMDA receptors. Relative inhibition elicited by the compound from the example 2 was calculated from the formula (1−a/b)*100(%).
Degree of activated NMDA receptor inhibition by steroid cationic compounds was measured in vitro electrophysiologically on cultivated HEK293 cells (Human Embryonic Kidney 293 cells) 24-48 h after the transfection with DNA plasmids, coding NR1-1a and NR2B subunit of NMDA receptor. Transfected cells were identified by means of fluorescent green protein (GFP) fluorescence. Its genus was transfected together with the both receptor subunit genes.
Steroid-containing solutions were prepared from fresh solution (20 mmol·l^−1, of steroid dissolved in dimethyl-sulfoxide, DMSO), which was added to the extracellular solution containing 1 mmol·l^−1 glutamic acid and 10 μmol·l^−1 of glycine. Same concentrations of DMSO were added to all other extracellular solutions.
Current responses produced by extracellular application of glutamic acid solution (1 mmol·l^−1) were measured from the whole cell by patch-clamp technique, which is used for the study of transport of charged particles through model and also natural biological membranes. The currents were measured at membrane potential maintained at −60 mV and +60 mV.
HEK293 cells (American Type Culture Collection, ATTC No. CRL1573, Rockville, Md.) were cultivated in Opti-MEM® I media (Invitrogen) with addition of 5% fetal bovine serum at 37° C. and transfected with NR1-1a/NR2B/GFP plasmids, as described in the scientific literature (Cais et al., 2008). Same amounts (0.3 μg) of cDNA coding NR1, NR2 and GFP (green fluorescent protein) (pQBI 25, Takara, Japan) were mixed with 0.9 μl of Matra-A Reagent (IBA, Göttingen, Germany) and added to confluent HEK293 cells cultivated in v 24-pit cultivating plate. After trypsination, the cells were re-suspended in Opti-MEM® I containing 1% fetal bovine serum. Subsequently, 20 mmol·l^−1 MgCl2, 1 mmol D,L-2-amino-5-phosphonopentanoic acid, 3 mmol·l^−1 kynurenic acid was added to the mixture and cells were inoculated on the polylysine-coated glass plates having 25 mm in diameter. The following genes coding NMDA receptor subunits were used for transfection: NR1-1a (GenBank accession no. U08261) and NR2B (GenBank accession no. M91562).
HEK293 Cultured cells were used for electrophysiological investigations with a latency of 16-40 h after transfection. Whole-cell currents were measured by patch-clamp amplifier (Axopatch 1D; Axon Instruments, Inc. Foster City, USA) after capacitance and serial resistance (<10 MΩ) compensation to 80-90%. Agonist-induced responses were filtered to 1 kHz (8-pole Bessel filter; Frequency Devices, Haverhill, USA), digitized with sampling frequency of 5 kHz and analyzed by pClamp version 9 software (Axon Instruments, USA). Micropipettes made of borosilicate glass were filled with intracellular solution, containing 125 mmol·l^−1 D-glukonic acid, 15 mmol·l^−1 cesium chloride, 5 mmol·l^−1 EGTA, 10 mmol·l^−1 HEPES buffer, 3 mmol·l^−1 magnesium chloride, 0.5 mmol·l^−1 calcium chloride and 2 mmol·l^−1 magnesium-salt of ATP (pH adjusted to 7.2 by cesium hydroxide solution). Extracellular solution (ECS) contained 160 mmol·l^−1 sodium chloride, 2.5 mmol·l^−1 potassium chloride, 10 mmol·l^−1 HEPES, 10 mmol·l^−1 glucose, 0.2 mmol·l^−1 EDTA a 0.7 mmol·l^−1 calcium chloride (pH adjusted to 7.3 by sodium hydroxide solution). Glycine was added to both testing and control solution.

[2] = test system: male mice strain B6; test: Anesthetic effect after i.p. injection; type: in vivo; conditions: 100 mg/kg i.p. in β-cyclodextrine
Experimental: Anesthetic effect of 3α5β pregnanolon argininate was tested on 2-month-old male mice strain B6. Animals were randomly assigned to 3 groups per 7 animals each. The first group was injected i.p. with saline, the second group received i.p. cyclodextrine, the third group obtained received the pregnanolon argininate at a dose 100 mg/kg (dissolved in β-cyclodextrine).

[3] = test system: mice strain B6; test: Spontaneous locomotor activity in the open-field test; type: in vivo; conditions: 10 mg/kg subcutaneously in cyclodextrin, 60 min session
Experimental: Animals were tracked with iTrack (Biosignal group, USA) and total path during this session was evaluated. The pregnanolone argininate was applied subcutaneously (dissolved in cyclodextrin) prior to behavioral observations at doses 10 mg/kg; control animals were injected with saline and cyclodextrin.

[4] = test system: Long-Evans male rats; test: Carousel maze (active allothetic place avoidance, AAPA): locomotion and cognitive function; type: in vivo
Experimental: Effect of pregnanolone argininate and nitrate and action of dizocilpine (a non-competitive antagonist of NMDA receptors; standardly used as positive control and referred hereafter as dizocilpine) on the behavior of rats in Carousel maze (active allothetic place avoidance (AAPA)), a spatial task requiring spatial orientation and cognitive functions
The effect of compounds on cognitive behaviors and locomotion was assessed using Carousel maze (active allothetic place avoidance (AAPA) task), which requires intact hippocampi and ability of animals to navigate in space using distinct reference frames (spatial navigation and “cognitive coordination”) (Wesierska et al., 2005) and it also allows measuring changes in the accompanying locomotor activity. AAPA task training involves animals trained to move over a slowly rotating uniform circular arena, on which a prohibited sector is defined, entering which is punished by a mild footshock. A shock sector and its position can be determined solely by its relationship to distal orienting cues in the room (Stuchlik et al., 2008).
This task is highly dependent upon hippocampal formation, with unilateral reversible ablation of this structure with TTX leading to avoidance deficit (Cimadevilla et al., 2001). Animals solving this task should walk in a direction opposite to arena rotation; otherwise it would be repeatedly brought to a fixed sector by arena rotation. We conducted 4 acquisition session of AAPA task, during which the sector location was always reinforced and remained stable throughout the training. Each session lasted 20 min.
The effect was tested on 2-month-old Long-Evans male rats. Control animals obtained cyklodextrine (s.c.), experimental groups received subcutaneous (s.c.) injections of the compound from example 2 at doses 1 mg/kg (dissolved in cyclodextrin). Intraperitonal application of dizocilpine (a non-competitive NMDA receptor antagonist; showing significant neuroprotective activity but exerting cognition-disturbing and psychotomimetic effects) was used as a positive control. Dizocilpine was applied at doses 0.15 mg/kg. It is worth noting that dizocilpine (albeit its experimental neuroprotective activity) is often used to model schizophrenia-like behaviors in […] and it has been repeatedly shown to exert a dose-dependent learning deficit and hyperlocomotion.
Locomotor activity of animals was assessed in the AAPA as total distance traveled in the coordinate frame of the arena (without passive rotation) in each 20-min session.
Another parameter, which can be measured and which brings a spatial aspect to behavioral analysis, is number of entrances into prohibited sector (occasionally termed “number of errors”).

[5] = target: T1, NR1/NR2B NMDA receptors; conditions: pregnanolone sulfate 100 μmol·l^−1, recombinant NR1/NR2B receptors, n=5, Petrovic et al., 2005, cited from earlier work
[6] = test system: NMDA receptors on hipocampal neurones; conditions: pregnanolone sulfate 100 μmol·l^−1; responses elicited by NMDA; −60 mV; n=5; Petrovic et al., 2005; cited from earlier work
[7] = dizocilpine 0.15 mg/kg intraperitoneal, positive control

T1 sequence (Q00960 27-1482, other chains not shown): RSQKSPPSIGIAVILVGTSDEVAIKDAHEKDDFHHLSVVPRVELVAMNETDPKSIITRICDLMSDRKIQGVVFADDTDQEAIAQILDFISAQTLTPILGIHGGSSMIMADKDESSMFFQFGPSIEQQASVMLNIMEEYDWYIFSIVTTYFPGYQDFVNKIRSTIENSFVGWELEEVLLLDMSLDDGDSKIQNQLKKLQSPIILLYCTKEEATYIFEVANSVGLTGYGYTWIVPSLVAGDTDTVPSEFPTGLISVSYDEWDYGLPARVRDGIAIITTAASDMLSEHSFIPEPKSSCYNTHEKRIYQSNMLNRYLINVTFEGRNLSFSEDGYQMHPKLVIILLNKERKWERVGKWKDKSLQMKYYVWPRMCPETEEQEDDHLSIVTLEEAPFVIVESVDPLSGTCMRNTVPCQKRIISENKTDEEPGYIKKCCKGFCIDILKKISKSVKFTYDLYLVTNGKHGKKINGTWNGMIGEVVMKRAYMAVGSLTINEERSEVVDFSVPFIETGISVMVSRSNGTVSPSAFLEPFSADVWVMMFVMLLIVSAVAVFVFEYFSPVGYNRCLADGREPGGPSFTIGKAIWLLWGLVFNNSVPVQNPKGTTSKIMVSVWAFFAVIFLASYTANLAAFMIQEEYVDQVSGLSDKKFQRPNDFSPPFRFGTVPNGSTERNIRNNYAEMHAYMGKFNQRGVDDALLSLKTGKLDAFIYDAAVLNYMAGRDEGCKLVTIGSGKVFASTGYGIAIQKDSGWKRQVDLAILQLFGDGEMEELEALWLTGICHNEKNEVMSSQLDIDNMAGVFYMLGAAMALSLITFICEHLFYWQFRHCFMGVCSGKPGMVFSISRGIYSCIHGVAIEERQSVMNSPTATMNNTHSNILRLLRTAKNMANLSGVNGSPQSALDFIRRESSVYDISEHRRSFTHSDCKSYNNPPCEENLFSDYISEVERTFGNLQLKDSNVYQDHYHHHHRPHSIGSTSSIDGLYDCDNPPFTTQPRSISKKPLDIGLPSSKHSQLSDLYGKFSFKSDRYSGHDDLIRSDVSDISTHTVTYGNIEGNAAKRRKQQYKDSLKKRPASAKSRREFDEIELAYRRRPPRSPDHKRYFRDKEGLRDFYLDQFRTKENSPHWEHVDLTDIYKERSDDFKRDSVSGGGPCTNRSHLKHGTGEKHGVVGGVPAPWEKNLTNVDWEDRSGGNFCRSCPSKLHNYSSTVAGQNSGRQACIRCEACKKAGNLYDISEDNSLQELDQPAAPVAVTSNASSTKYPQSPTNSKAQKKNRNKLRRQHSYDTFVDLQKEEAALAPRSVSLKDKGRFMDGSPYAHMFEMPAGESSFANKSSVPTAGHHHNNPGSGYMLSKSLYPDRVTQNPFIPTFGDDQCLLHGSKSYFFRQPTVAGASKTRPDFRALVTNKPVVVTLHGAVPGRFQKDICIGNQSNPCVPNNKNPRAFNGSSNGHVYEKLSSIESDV

**Q.** Which results are given for `CC(=O)[C@H]1CC[C@H]2[C@@H]3CC[C@@H]4C[C@H](OC(=O)C[N+](C)(C)C)CC[C@]4(C)[C@H]3CC[C@]12C.[Cl-]` [Example 8, 20-Oxo-5β-pregnan-3α-yl-2-(trimethylammonium) acetate hydrochloride]?
**A.** IC50 [1]: 22.4 µM; Relative inhibition effect (%) ([1]; steroid 30 μmol·l^−1, −60 mV): 57.0 ± 9.6%

**Q.** What does the source list for `CCC(CCC(=O)O[C@@H]1CC[C@@]2(C)[C@H](CC[C@@H]3[C@@H]2CC[C@]2(C)[C@@H](C(C)=O)CC[C@@H]32)C1)[N+](C)(C)C.[Cl-]` (stereo partly drawn) [Example 7, 20-Oxo-5β-pregnan-3α-yl 4-(trimethylammonium) hexanoate chloride]?
**A.** IC50 [1]: 23.6 µM; Relative inhibition effect (%) ([1]; steroid 100 μmol·l^−1, −60 mV): 85.6 +/− 2.3%

**Q.** For `CC(=O)O.CC(=O)O.CC(=O)[C@H]1CC[C@H]2[C@@H]3CC[C@@H]4C[C@H](OC(=O)[C@@H](N)CCCNC(=N)N)CC[C@]4(C)[C@H]3CC[C@]12C` [Example 2, 20-Oxo-5β-pregnan-3α-yl L-argininate diacetate salt], which “time after injection to anesthesia” value [2] is on record?
**A.** 5 to 20 min

**Q.** And the “time after injection to decreased locomotor activity” value [2]?
**A.** 3 to 15 min

**Q.** What about the “time to spontaneous awakening” value [2] of the same compound?
**A.** 1 to 3 h

**Q.** What about the “dependence of average inhibition on the maintained membrane potential” value ([1]; 10 μmol·l^−1, FIG. 1B) of the same compound?
**A.** independence

**Q.** What about the “reversibility of inhibition of the current response” value ([1]; 10 μmol·l^−1 applied simultaneously with 1 mmol·l^−1 glutamic acid, −60 mV or +60 mV, FIG. 1A) of the same compound?
**A.** reversible inhibition

**Q.** And the IC50 [1]?
**A.** 5.3 µM

**Q.** What about the “Relative inhibition effect (%)” value ([1]; steroid 10 μmol·l^−1) of the same compound?
**A.** 69.2 ± 9.6%

**Q.** And the “spontaneous locomotor activity (total path)” value [3]?
**A.** did not significantly alter

**Q.** And the “locomotor activity: total distance per session in AAPA” value ([4]; compound from example 2 1 mg/kg s.c. in cyclodextrin (nitrate dose not given), 20-min session, vs cyclodextrin controls, diacetate salt, 1 mg/kg)?
**A.** no significant effect

**Q.** What about the “locomotor activity: total distance per session in AAPA” value ([4]; compound from example 2 1 mg/kg s.c. in cyclodextrin (nitrate dose not given), 20-min session, vs cyclodextrin controls, listed as pregnanolone argininate, diacetate salt, 1 mg/kg) of the same compound?
**A.** failed to exhibit either decrease or increase

**Q.** What about the “number of entrances into shock sector (spatial cognition)” value (from here on “number of entrances into shock sector”) ([4]; compound from example 2 1 mg/kg s.c. in cyclodextrin (nitrate dose not given), vs cyclodextrin controls, diacetate salt, 1 mg/kg) of the same compound?
**A.** no significant effect

**Q.** What about the “number of entrances into shock sector” value ([4]; compound from example 2 1 mg/kg s.c. in cyclodextrin (nitrate dose not given), vs cyclodextrin controls, listed as pregnanolone argininate, diacetate salt, 1 mg/kg) of the same compound?
**A.** do not caused worsening

**Q.** What does the source list for `CC(=O)[C@H]1CC[C@H]2[C@@H]3CC[C@@H]4C[C@H](OC(=O)CCC[N+](C)(C)C)CC[C@]4(C)[C@H]3CC[C@]12C.[Cl-]` [Example 6, 20-Oxo-5β-pregnan-3α-yl 4-(trimethylammonium) butanoate chloride]?
**A.** IC50 [1]: 5.9 µM; Relative inhibition effect (%) ([1]; steroid 10 μmol·l^−1): 65.4 ± 3.4%

**Q.** With `C[C@]12N[C@H](Cc3ccccc31)c1ccccc12` [dizocilpine, reference compound] as the compound, how does the “locomotor activity: total distance per session in AAPA” value [4, 7] read?
**A.** stimulated the locomotor activity

**Q.** And the “number of entrances into shock sector” value [4, 7]?
**A.** dose-dependently disrupted

**Q.** And the “number of entrances into shock sector” value ([4]; dizocilpine 0.15 mg/kg intraperitoneal, positive control, listed as MK-801)?
**A.** disrupts

**Q.** With `CC(=O)[C@H]1CC[C@H]2[C@@H]3CC[C@@H]4C[C@H](OC(=O)CN(C)C(=N)N)CC[C@]4(C)[C@H]3CC[C@]12C.Cl` [Example 5, 20-Oxo-5β-pregnan-3α-yl 2-(methylguanidino) acetate hydrochloride] as the compound, how does the IC50 [1] read?
**A.** 3.3 ± 0.7 µM

**Q.** And the “Relative inhibition effect (%)” value ([1]; steroid 10 μmol·l^−1)?
**A.** 79.2 ± 4.2%

**Q.** With `CC(=O)C1CCC2C3CC[C@@H]4C[C@H]([N+](C)(C)C)CC[C@]4(C)C3CC[C@]12C.[Cl-]` (stereo partly drawn) [Example 10, 3-(Trimethylammonium)-5β-pregnan-20-one chloride] as the compound, how does the IC50 [1] read?
**A.** 107 µM

**Q.** What about the “Relative inhibition effect (%)” value ([1]; steroid 100 μmol·l^−1, −60 mV) of the same compound?
**A.** 69.2 ± 9.6%

**Q.** And the melting point?
**A.** 237 to 240 °C (dec.)

**Q.** With “5β-pregnanolon-3α-yl-sulfate [Pregnanolone sulfate]” as the compound, how does the “Relative inhibition effect (%)” value ([5]; listed as 5β-pregnanolon-3α-yl-sulfate) read?
**A.** 67%

**Q.** And the “Relative inhibition effect (%)” value ([5]; listed as pregnanolone sulfate)?
**A.** 67.2±8.2%

**Q.** What about the mean inhibition effect [6] of the same compound?
**A.** 71.3±5.0%

**Q.** And the IC50 [1]?
**A.** 55 µM
